Measured values reported in article PMC5218480 (PLoS ONE, 2017).

System: MV-4-11 cells
Assay: Gene expression microarray analysis (Affymetrix PrimeView) and GSEA
Type: cell-based, human
Parameters: RFU PODN (11730768_x_at) / Fold change /veh PODN (11730768_x_at) / RFU LINC00158 (11744669_a_at) / Fold change /veh LINC00158 (11744669_a_at) / RFU DUSP10 (11751237_a_at) / Fold change /veh DUSP10 (11751237_a_at) / RFU ID3 (11757404_x_at) / Fold change /veh ID3 (11757404_x_at) / RFU PLEKHG5 (11737974_s_at) / Fold change /veh PLEKHG5 (11737974_s_at) / RFU LRRC4B (11730491_at) / Fold change /veh LRRC4B (11730491_at) / RFU GIMAP4 (11747438_a_at) / Fold change /veh GIMAP4 (11747438_a_at) / RFU KRT8 (11758183_x_at) / Fold change /veh KRT8 (11758183_x_at) / RFU CNN1 (11734310_a_at) / Fold change /veh CNN1 (11734310_a_at) / RFU VPS37D (11726825_at) / Fold change /veh VPS37D (11726825_at) / RFU C10orf10 (11716522_x_at) / Fold change /veh C10orf10 (11716522_x_at) / RFU KIR2DL2 /// KIR2DL4 /// KIR2DL5A /// KIR2DL5B /// KIR2DS1 /// KIR2DS2 /// KIR2DS3 /// KIR2DS4 /// KIR3DL3 /// KIR3DL3 /// KIR3DS1 (11738374_at) / Fold change /veh KIR2DL2 /// KIR2DL4 /// KIR2DL5A /// KIR2DL5B /// KIR2DS1 /// KIR2DS2 /// KIR2DS3 /// KIR2DS4 /// KIR3DL3 /// KIR3DL3 /// KIR3DS1 (11738374_at) / RFU C1QL1 (11718748_at) / Fold change /veh C1QL1 (11718748_at) / RFU TMPRSS4 (11747572_a_at) / Fold change /veh TMPRSS4 (11747572_a_at) / RFU HAMP (11756126_x_at) / Fold change /veh HAMP (11756126_x_at) / RFU RNFT2 (11725882_a_at) / Fold change /veh RNFT2 (11725882_a_at) / RFU NR4A2 (11747474_a_at) / Fold change /veh NR4A2 (11747474_a_at) / RFU ABCC12 (11746883_a_at) / Fold change /veh ABCC12 (11746883_a_at) / RFU TMEM136 (11760407_x_at) / Fold change /veh TMEM136 (11760407_x_at) / RFU CLDN22 /// WWC2 (11732394_at) / Fold change /veh CLDN22 /// WWC2 (11732394_at) / RFU HLA-DPB1 (11760878_x_at) / Fold change /veh HLA-DPB1 (11760878_x_at) / RFU SPINT1 (11716480_a_at) / Fold change /veh SPINT1 (11716480_a_at) / RFU GAP43 (11754022_s_at) / Fold change /veh GAP43 (11754022_s_at) / RFU A4GNT (11735810_at) / Fold change /veh A4GNT (11735810_at) / RFU PRB3 (11715151_x_at) / Fold change /veh PRB3 (11715151_x_at) / RFU TUBB4B (11761932_at) / Fold change /veh TUBB4B (11761932_at) / RFU CAPN14 (11732068_a_at) / Fold change /veh CAPN14 (11732068_a_at) / RFU TMCC2 (11721928_a_at) / Fold change /veh TMCC2 (11721928_a_at) / RFU IRGQ (11745062_a_at) / Fold change /veh IRGQ (11745062_a_at) / RFU FAM174B (11720279_a_at) / Fold change /veh FAM174B (11720279_a_at) / RFU TMPRSS4 (11748680_a_at) / Fold change /veh TMPRSS4 (11748680_a_at) / RFU FAM212B (11763350_a_at) / Fold change /veh FAM212B (11763350_a_at) / RFU PLEKHG5 (11743358_a_at) / Fold change /veh PLEKHG5 (11743358_a_at) / RFU ZSCAN30 (11745921_a_at) / Fold change /veh ZSCAN30 (11745921_a_at) / RFU CMKLR1 (11741424_a_at) / Fold change /veh CMKLR1 (11741424_a_at) / RFU LOC101060620 /// MAPK8IP1 (11723275_at) / Fold change /veh LOC101060620 /// MAPK8IP1 (11723275_at) / RFU SPTSSB (11747773_x_at) / Fold change /veh SPTSSB (11747773_x_at) / RFU PRSS12 (11739890_at) / Fold change /veh PRSS12 (11739890_at) / RFU BIN1 (11741810_x_at) / Fold change /veh BIN1 (11741810_x_at) / RFU WNT11 (11732464_a_at) / Fold change /veh WNT11 (11732464_a_at) / RFU C10orf10 (11716521_a_at) / Fold change /veh C10orf10 (11716521_a_at) / RFU C5orf56 (11738089_at) / Fold change /veh C5orf56 (11738089_at) / RFU CYB561 (11721691_x_at) / Fold change /veh CYB561 (11721691_x_at) / RFU ANKRD19P (11752326_a_at) / Fold change /veh ANKRD19P (11752326_a_at) / RFU OR2T12 /// OR2T33 /// OR2T8 (11738714_s_at) / Fold change /veh OR2T12 /// OR2T33 /// OR2T8 (11738714_s_at) / RFU VCAN (11748164_a_at) / Fold change /veh VCAN (11748164_a_at) / RFU JSRP1 (11732532_at) / Fold change /veh JSRP1 (11732532_at) / RFU KRTAP10-11 (11738290_x_at) / Fold change /veh KRTAP10-11 (11738290_x_at) / RFU MYO3A (11730013_a_at) / Fold change /veh MYO3A (11730013_a_at) / RFU EBF3 (11725865_a_at) / Fold change /veh EBF3 (11725865_a_at) / RFU CAMK2N1 (11719241_x_at) / Fold change /veh CAMK2N1 (11719241_x_at) / RFU C5orf56 (11738088_a_at) / Fold change /veh C5orf56 (11738088_a_at) / RFU OLFML3 (11715873_a_at) / Fold change /veh OLFML3 (11715873_a_at) / RFU LOC100653217 /// NTM (11731650_a_at) / Fold change /veh LOC100653217 /// NTM (11731650_a_at) / RFU MAPK11 (11762145_a_at) / Fold change /veh MAPK11 (11762145_a_at) / RFU FIZ1 (11724087_x_at) / Fold change /veh FIZ1 (11724087_x_at) / RFU OASL (11726364_x_at) / Fold change /veh OASL (11726364_x_at) / RFU SOX15 (11748057_x_at) / Fold change /veh SOX15 (11748057_x_at) / RFU CD79A (11719716_a_at) / Fold change /veh CD79A (11719716_a_at) / RFU HIST1H1D (11736915_at) / Fold change /veh HIST1H1D (11736915_at) / RFU CASKIN2 (11723855_a_at) / Fold change /veh CASKIN2 (11723855_a_at) / RFU LOC730098 (11760151_x_at) / Fold change /veh LOC730098 (11760151_x_at) / RFU OR4N2 (11742367_at) / Fold change /veh OR4N2 (11742367_at) / RFU PRRT2 (11749266_a_at) / Fold change /veh PRRT2 (11749266_a_at) / RFU SNX32 (11753110_a_at) / Fold change /veh SNX32 (11753110_a_at) / RFU CDHR5 (11726645_a_at) / Fold change /veh CDHR5 (11726645_a_at) / RFU RCAN1 (11760418_a_at) / Fold change /veh RCAN1 (11760418_a_at) / RFU FAM167A (11723789_a_at) / Fold change /veh FAM167A (11723789_a_at) / RFU FAM26E (11764081_at) / Fold change /veh FAM26E (11764081_at) / RFU ISYNA1 (11749810_s_at) / Fold change /veh ISYNA1 (11749810_s_at) / RFU ACY1 (11761880_at) / Fold change /veh ACY1 (11761880_at) / RFU 11764098_at / Fold change /veh 11764098_at / RFU SAMD14 (11745864_x_at) / Fold change /veh SAMD14 (11745864_x_at) / RFU NPB (11741838_a_at) / Fold change /veh NPB (11741838_a_at) / RFU TMPRSS6 (11731388_a_at) / Fold change /veh TMPRSS6 (11731388_a_at) / RFU KRTAP10-2 (11738614_at) / Fold change /veh KRTAP10-2 (11738614_at) / RFU ARHGAP8 /// PRR5-ARHGAP8 (11727945_x_at) / Fold change /veh ARHGAP8 /// PRR5-ARHGAP8 (11727945_x_at) / RFU KRTAP5-7 /// NADSYN1 (11734609_at) / Fold change /veh KRTAP5-7 /// NADSYN1 (11734609_at) / RFU RASL12 (11751679_a_at) / Fold change /veh RASL12 (11751679_a_at) / RFU CDKN2B (11736163_a_at) / Fold change /veh CDKN2B (11736163_a_at) / RFU PRF1 (11729649_at) / Fold change /veh PRF1 (11729649_at) / RFU, ZNF638 /// ZNF638-IT1 / Fold change vs veh, ZNF638 /// ZNF638-IT1 / RFU, PANK3 / Fold change vs veh, PANK3 / RFU, SH3YL1 / Fold change vs veh, SH3YL1 / RFU, ZEB2 / Fold change vs veh, ZEB2 / RFU, NRIP1 / Fold change vs veh, NRIP1 / RFU, PTTG1IP / Fold change vs veh, PTTG1IP / RFU, CAPN2 / Fold change vs veh, CAPN2 / RFU, MED14 / Fold change vs veh, MED14 / RFU, SNORA58 / Fold change vs veh, SNORA58 / RFU, C1orf63 / Fold change vs veh, C1orf63 / RFU, LRRFIP1 / Fold change vs veh, LRRFIP1 / RFU, NDUFAF7 / Fold change vs veh, NDUFAF7 / RFU, SLC12A2 / Fold change vs veh, SLC12A2 / RFU, IBTK / Fold change vs veh, IBTK / RFU, ESF1 / Fold change vs veh, ESF1 / Fold change vs veh, TMEM50B / RFU, TAOK1 / Fold change vs veh, TAOK1 / RFU, ACBD3 / Fold change vs veh, ACBD3 / RFU, TMA16 / Fold change vs veh, TMA16 / RFU, RWDD3 / Fold change vs veh, RWDD3 / RFU, BCAT1 / Fold change vs veh, BCAT1 / RFU, EDEM3 / Fold change vs veh, EDEM3 / RFU, TMEM33 / Fold change vs veh, TMEM33 / RFU, WDR75 / Fold change vs veh, WDR75 / RFU, AHCTF1 / Fold change vs veh, AHCTF1 / RFU, TFRC / Fold change vs veh, TFRC / RFU, ZDHHC17 / Fold change vs veh, ZDHHC17 / RFU, NOM1 / Fold change vs veh, NOM1 / RFU, ARL8B / Fold change vs veh, ARL8B / RFU, ZBTB11 / Fold change vs veh, ZBTB11 / RFU, TAMM41 / Fold change vs veh, TAMM41 / RFU, KIAA1704 /// LOC100996395 / Fold change vs veh, KIAA1704 /// LOC100996395 / RFU, ING1 / Fold change vs veh, ING1 / RFU, TRMT61B / Fold change vs veh, TRMT61B / RFU, FUBP3 / Fold change vs veh, FUBP3 / RFU, TP53 / Fold change vs veh, TP53 / RFU, TNKS2 / Fold change vs veh, TNKS2 / RFU, ZFP14 / Fold change vs veh, ZFP14 / RFU, ACTR2 / Fold change vs veh, ACTR2 / RFU, PPP3R1 / Fold change vs veh, PPP3R1 / RFU, PIK3R1 / Fold change vs veh, PIK3R1 / RFU, HNRNPA1 / Fold change vs veh, HNRNPA1 / RFU, RNF170 / Fold change vs veh, RNF170 / RFU, ZNF28 / Fold change vs veh, ZNF28 / RFU, RNGTT / Fold change vs veh, RNGTT / RFU, OGT / Fold change vs veh, OGT / RFU, BRD1 / Fold change vs veh, BRD1 / RFU, MARS / Fold change vs veh, MARS / RFU, ZNF655 / Fold change vs veh, ZNF655 / RFU, FAHD1 / Fold change vs veh, FAHD1 / RFU, BDP1 / Fold change vs veh, BDP1 / RFU, LRRCC1 / Fold change vs veh, LRRCC1 / RFU, ARID1A / Fold change vs veh, ARID1A / RFU, ZNF146 / Fold change vs veh, ZNF146 / RFU, ZNF330 / Fold change vs veh, ZNF330 / RFU, GPN3 / Fold change vs veh, GPN3 / RFU, C9orf123 / Fold change vs veh, C9orf123 / RFU, N4BP2L2 / Fold change vs veh, N4BP2L2 / RFU, ARFIP1 / Fold change vs veh, ARFIP1 / RFU, FAM179B / Fold change vs veh, FAM179B / RFU, BCL10 / Fold change vs veh, BCL10 / RFU, UHRF1BP1L / Fold change vs veh, UHRF1BP1L / RFU, BET1 / Fold change vs veh, BET1 / RFU, CNOT2 / Fold change vs veh, CNOT2 / RFU, ZNF268 / Fold change vs veh, ZNF268 / Fold change vs veh, ZNF507 / RFU, DGCR2 / Fold change vs veh, DGCR2 / RFU, WDSUB1 / Fold change vs veh, WDSUB1 / Fold change vs veh, HSP90B1 /// MIR3652 / RFU, ADSS / Fold change vs veh, ADSS / RFU, GK / Fold change vs veh, GK / RFU, ZNF148 / Fold change vs veh, ZNF148 / RFU, TAF9 / Fold change vs veh, TAF9 / RFU, SLC1A5 / Fold change vs veh, SLC1A5 / RFU, SLMO2 / Fold change vs veh, SLMO2 / RFU, ABCC4 / Fold change vs veh, ABCC4 / RFU, LOC101060439 /// RAP1B / Fold change vs veh, LOC101060439 /// RAP1B / RFU, RFX7 / Fold change vs veh, RFX7 / RFU, GTPBP10 / Fold change vs veh, GTPBP10 / RFU, CNEP1R1 / Fold change vs veh, CNEP1R1 / RFU, BIVM-ERCC5 /// ERCC5 / Fold change vs veh, BIVM-ERCC5 /// ERCC5 / RFU, ILF3 / Fold change vs veh, ILF3 / RFU 11762660_at / Fold change /veh 11762660_at / RFU VCAN (11757783_s_at) / Fold change /veh VCAN (11757783_s_at) / RFU DDX43 (11728927_at) / Fold change /veh DDX43 (11728927_at) / RFU KRT8 (11758188_x_at) / Fold change /veh KRT8 (11758188_x_at) / RFU NKD1 (11759106_at) / Fold change /veh NKD1 (11759106_at) / RFU SRD5A1 (11742802_a_at) / Fold change /veh SRD5A1 (11742802_a_at) / RFU TPSAB1 /// TPSB2 (11721975_s_at) / Fold change /veh TPSAB1 /// TPSB2 (11721975_s_at) / RFU GSTM3 (11746129_a_at) / Fold change /veh GSTM3 (11746129_a_at) / RFU IL23R (11737362_x_at) / Fold change /veh IL23R (11737362_x_at) / RFU TMEM51 (11727254_a_at) / Fold change /veh TMEM51 (11727254_a_at) / RFU PIWIL2 (11732686_x_at) / Fold change /veh PIWIL2 (11732686_x_at) / RFU ORM1 (11744905_x_at) / Fold change /veh ORM1 (11744905_x_at) / RFU CCDC152 (11743942_at) / Fold change /veh CCDC152 (11743942_at) / RFU ECM1 (11717891_a_at) / Fold change /veh ECM1 (11717891_a_at) / RFU IL23R (11748794_a_at) / Fold change /veh IL23R (11748794_a_at) / RFU TNFAIP8L3 (11732012_x_at) / Fold change /veh TNFAIP8L3 (11732012_x_at) / RFU MBOAT4 (11741988_at) / Fold change /veh MBOAT4 (11741988_at) / RFU 11764193_at / Fold change /veh 11764193_at / RFU TMEM53 (11763286_at) / Fold change /veh TMEM53 (11763286_at) / RFU MAGEB2 (11727129_at) / Fold change /veh MAGEB2 (11727129_at) / RFU TMEM200A (11744735_a_at) / Fold change /veh TMEM200A (11744735_a_at) / RFU CCDC152 (11751479_a_at) / Fold change /veh CCDC152 (11751479_a_at) / RFU FAM211A (11726209_a_at) / Fold change /veh FAM211A (11726209_a_at) / RFU RGS16 (11746705_a_at) / Fold change /veh RGS16 (11746705_a_at) / RFU VCAN (11755009_s_at) / Fold change /veh VCAN (11755009_s_at) / RFU RHOB (11743442_s_at) / Fold change /veh RHOB (11743442_s_at) / RFU RGS16 (11720943_a_at) / Fold change /veh RGS16 (11720943_a_at) / RFU RGS16 (11720944_at) / Fold change /veh RGS16 (11720944_at) / RFU, VPS4B / Fold change vs veh, VPS4B / RFU, CREB1 / Fold change vs veh, CREB1 / RFU, DNAJC13 / Fold change vs veh, DNAJC13 / RFU, GNAQ / Fold change vs veh, GNAQ / RFU, CDK5R1 / Fold change vs veh, CDK5R1 / RFU, ZRANB3 / Fold change vs veh, ZRANB3 / RFU, CUL4A / Fold change vs veh, CUL4A / RFU, CCNY / Fold change vs veh, CCNY / RFU, UFL1 / Fold change vs veh, UFL1 / RFU, COG3 / Fold change vs veh, COG3 / RFU, DIAPH2 / Fold change vs veh, DIAPH2 / RFU, SKA2 / Fold change vs veh, SKA2 / RFU, AFF3 / Fold change vs veh, AFF3 / RFU, LMF1 / Fold change vs veh, LMF1 / RFU, IPO11 / Fold change vs veh, IPO11 / RFU, DFFB / Fold change vs veh, DFFB / RFU, FOXP1 / Fold change vs veh, FOXP1 / RFU, CARD8 / Fold change vs veh, CARD8 / RFU, STRN3 / Fold change vs veh, STRN3 / RFU, ADK / Fold change vs veh, ADK / RFU, RASSF2 / Fold change vs veh, RASSF2 / RFU, WIPF1 / Fold change vs veh, WIPF1 / RFU, LARP1B / Fold change vs veh, LARP1B / RFU, RASA1 / Fold change vs veh, RASA1 / RFU, RB1 / Fold change vs veh, RB1 / RFU, PPFIA1 / Fold change vs veh, PPFIA1 / RFU, MAT2A / Fold change vs veh, MAT2A / RFU, CCT5 / Fold change vs veh, CCT5 / RFU, WDR92 / Fold change vs veh, WDR92 / RFU, CUX1 / Fold change vs veh, CUX1 / RFU, TTC7A / Fold change vs veh, TTC7A / RFU, TMEM135 / Fold change vs veh, TMEM135 / RFU, DEPTOR / Fold change vs veh, DEPTOR / RFU, CPM / Fold change vs veh, CPM / RFU, DNAJB6 / Fold change vs veh, DNAJB6 / RFU, CACNA2D3 / Fold change vs veh, CACNA2D3 / RFU, DTX4 / Fold change vs veh, DTX4 / RFU, TFCP2 / Fold change vs veh, TFCP2 / RFU, GMCL1 /// GMCL1P1 / Fold change vs veh, GMCL1 /// GMCL1P1 / RFU, AEBP2 / Fold change vs veh, AEBP2 / RFU, SNHG1 /// SNORD22 /// SNORD25 /// SNORD26 /// SNORD27 /// SNORD28 /// SNORD29 /// SNORD31 / Fold change vs veh, SNHG1 /// SNORD22 /// SNORD25 /// SNORD26 /// SNORD27 /// SNORD28 /// SNORD29 /// SNORD31 / Fold change (Aza/veh), C12orf56 (ProbeSet 11735607_a_at) / Fold change (ACY-1035/veh), C12orf56 (ProbeSet 11735607_a_at) / Fold change (Aza/veh), FGFR1OP (ProbeSet 11751329_s_at) / Fold change (ACY-1035/veh), FGFR1OP (ProbeSet 11751329_s_at) / Fold change (Aza/veh), VPS36 (ProbeSet 11739960_a_at) / Fold change (ACY-1035/veh), VPS36 (ProbeSet 11739960_a_at) / RFU SYPL1 (11715823_x_at) / Fold change /veh SYPL1 (11715823_x_at) / RFU IGFBP7 (11715501_s_at) / Fold change /veh IGFBP7 (11715501_s_at) / RFU REEP3 (11722064_at) / Fold change /veh REEP3 (11722064_at) / RFU IGLL1 (11728026_x_at) / Fold change /veh IGLL1 (11728026_x_at): dose or concentration left out as unconfirmed
Conditions: ProbeSet 11731610_x_at; LIST B

## Nc1ncn([C@@H]2O[C@H](CO)[C@@H](O)[C@H]2O)c(=O)n1 [azacitidine]
  Fold change vs veh, KIAA1704 /// LOC100996395: 1.05
